{
  "source": "patent US10047067B2",
  "about": "“Composition for treating kidney disease comprising pyrazole derivative” (Ewha University-Industry Collaboration Foundation, priority 2012, dated 2018)",
  "key": {"C57BL/6J mice [1]": {"tested_on": "C57BL/6J mice", "test": "Renal fibrosis: real-time PCR analysis of renal tissues", "type": "in vivo", "settings": "renal tissue, treatment group vs diabetes group, 12 weeks", "description": "Total RNA was isolated using Trizol reagent (Invitrogen) according to the manufacturer's instruction. The total RNA isolate was used for real-time PCR.\nBriefly, as described in Example 10, diabetes was induced, and 1-(pyridin-2-yl)-3-phenyl-4-propyl-1H-pyrazol-5-ol.HCl, the compound of Example 1 of the present invention, was administered to the mice that were sacrificed 12 weeks later. Then, renal tissues were excised from the mice and homogenized with a predetermined amount (500 μl) of Trizol reagent (Invitrogen), followed by centrifuging the homogenate (13,000 rpm, 10 min). The supernatant was reacted with 200 μl of chloroform for 15 min and centrifuged. The total RNA was precipitated with isopropyl alcohol, and washed with 75% ethyl alcohol before use in experiments. From 2 μg of total RNA, cDNA was synthesized using a reverse transcription kit (Applied Biosystems), and selective mRNA was quantitatively analyzed in ABI 7300 real-time PCR thermal cycler (Applied Biosystems) with the aid of SYBR Green PCR Master Mix kit according to the manufacturer's instruction. Each experiment was run in duplicate with 20 μl. For correct quantitation and identification of results from a single product, a standard curve and a dissociation curve were employed. PCR was performed with 40 thermal cycles of 95° C. for 15 sec and 56° C. for 1 min.\nIn FIG. 3, the control (WT) stands for a group in which type 1 diabetes mellitus was not induced, the diabetes group (DM) for a group in which type 1 diabetes mellitus was induced, and the treatment group (DM+compound of Example 1) for a group that was treated with the compound of Example 1 after introduction of type 1 diabetes mellitus. Data of FIG. 3 are expressed as mean±standard error (SE) from 8 to 12 mice per group. Statistic comparison among the groups was analyzed by ANOVA and Fisher's least significant difference test, with significance at p<0.05. *P<0.05 vs. WT, †P<0.05 vs. DM."}, "C57BL/6J mice [2]": {"tested_on": "C57BL/6J mice", "test": "Glomerular hypertrophy and glomerular mesangial expansion (PAS staining of kidney)", "type": "in vivo", "settings": "treatment group vs diabetes group, 10 mg/kg/day oral, 12 weeks", "description": "For morphological analysis for examining glomerular hypertrophy and glomerular mesangial cell formation, a staining method was used as disclosed previously (Lee E A, Seo J Y, Jiang Z, Yu M R, Kwon M K, Ha H, Lee H B: Reactive oxygen species mediate high glucose-induced plasminogen activator inhibitor-1 up-regulation in mesangial cells and in diabetic kidney. Kidney Int. 67:1762-71, 2005). As described in Example 10, diabetes was induced in mice that were then treated with 1-(pyridin-2-yl)-3-phenyl-4-propyl-1H-pyrazol-5-ol.HCl, the compound of Example 1, and scarified 12 weeks later. After cardiac perfusion with 0.1 M PBS (phosphate-buffered saline), tissue fixation was performed overnight with 2% PLP (paraformaldehyde-lysine-periodate). […] In one renal tissue, 30 glomeruli were scanned, and measured for size and mesangial cell formation, using Image-Pro Plus 4.5 Software (MEDIA CYBERNETICS). The glomerular size was calculated according to Equation 1. […] Data of FIG. 1 are expressed as mean±standard error (SE) from 8 to 12 mice per group. Statistic comparison among the groups was analyzed by ANOVA and Fisher's least significant difference test, with significance at p<0.05. *P<0.05 vs. WT, †P<0.05 vs DM."}},
  "data": [
    {"smiles": "CCCc1c(-c2ccccc2)nn(-c2ccccn2)c1O.Cl", "note": "[Compound 18-278, 1-(pyridin-2-yl)-3-phenyl-4-propyl-1H-pyrazol-5-ol.HCl]", "values": [
      {"measurement": "expression level of Collagen Iα1 mRNA to 18S rRNA", "setting": "C57BL/6J mice [1]", "result": "significantly decreased"},
      {"measurement": "expression level of F4/80 mRNA to 18S rRNA", "setting": "C57BL/6J mice [1]", "result": "significantly decreased"},
      {"measurement": "expression level of TGF-β1 mRNA to 18S rRNA", "setting": "C57BL/6J mice [1]", "result": "significantly decreased"},
      {"measurement": "expression level of collagen IV mRNA to 18S rRNA", "setting": "C57BL/6J mice [1]", "result": "significantly decreased"},
      {"measurement": "expression level of fibronectin mRNA to 18S rRNA", "setting": "C57BL/6J mice [1]", "result": "significantly decreased"},
      {"measurement": "glomerular mesangial expansion (fractional mesangial area)", "setting": "C57BL/6J mice [2]", "result": "reduced to the level of the control"},
      {"measurement": "glomerular size (glomerular volume)", "setting": "C57BL/6J mice [2]", "result": "significantly smaller than that of the diabetes group"}
    ]}
  ]
}
